Laboratory results published in US20250032400A1, “PERSONAL CARE COMPOSITION” (Conopco, Inc., d/b/a UNILEVER, priority 2021, published 2025).

Key:
[1] = system: hyaluronan synthase 3 (HAS3); assay: HAS3 gene expression by RT-PCR in normal human epidermal keratinocytes incubated with actives; type: cell-based; conditions: NHEK, 24 hours, 0.05 wt % of LCC in medium
Protocol: (§1) The normal human epidermal keratinocytes (NHEK) (Biocell, Xi'an, China) were incubated in medium together with or without actives for 24 hours. After incubation, the total RNA for each NHEK was extracted using RNAiso Plus (TaKaRa, Cat: 9108; Cat: RR036) according to manufacturer's protocol.
(§2) The extracted RNA was quantified using Nanodrop spectrometer (Thermo Fisher Scientific, Waltham, MA, US) and reverse transcribed to generate the template cDNA using the PrimeScript II 1st Strand cDNA synthesis kit according to manufacturer's protocol. Amplification of the gene encoding the hyaluronan synthase 3 (HAS3) and CD44 was performed with RT-PCR reagent (SYBR® Premix Ex Taq™) on the ABI Vii 7 Real-Time PCR Systems (Applied Biosystems, Thermo fisher scientific, Carlsbad, CA, USA). The beta-actin gene was selected as the housekeeping gene and all data on relative expression of the target genes was normalized to beta-actin. The fold changes in expression were calculated relative to the blank control (medium having no active).

[2] = system: CD44; assay: CD44 gene expression by RT-PCR in normal human epidermal keratinocytes incubated with actives; type: cell-based; conditions: NHEK, 24 hours, 0.05 wt % of LCC in medium
Protocol: as §1, §2

## Lysine carboxymethyl cysteinate [LCC]
[1]
  HAS3 expression (fold change relative to blank control, normalized to beta-actin): 0.84
[2]
  CD44 expression (fold change relative to blank control, normalized to beta-actin): 1.06
